Data: PubChem BioAssay AID1648 (Sanford-Burnham Center for Chemical Genomics, 2009)
Activity calls are given as the source filed them. No rule for the calls is given here.

molecular target: Serine/threonine-protein kinase mTOR (Homo sapiens) (UniProt P42345); test: mTOR FRB domain ligand binding – biophysical, NMR (AID 1648); details: NMR binding to FRB domain, chemical shift
Sequence (P42345 2015-2114): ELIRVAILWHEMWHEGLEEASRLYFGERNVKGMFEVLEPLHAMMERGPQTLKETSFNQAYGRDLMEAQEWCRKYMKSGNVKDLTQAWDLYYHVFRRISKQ

Compound	Kd
Cc1cc(C(=O)N2CCN(c3ncccn3)CC2)cs1	> 4 mM (inactive)
CCN1C(=O)c2cccc3c(S(N)(=O)=O)ccc1c23	> 4 mM (inactive)
C=C1C(=O)OC2CC1C(OC(C)=O)C/C(C)=C/CC/C(C)=C/CC[C@]2(C)O (some centres not stated)	> 4 mM (inactive)
COc1ccc(C2(C)CC(=O)NC2=O)cc1 (configuration not stated)	> 4 mM (inactive)
CC1(C)Cc2cccc(CO)c2O1	> 4 mM (inactive)
O=C(NN1C(=O)CSC1=S)c1ccccc1	> 4 mM (inactive)
O=C(Nc1cccnc1)c1cnn2cccnc12	> 4 mM (inactive)
CC(=O)Nc1ccc(Cl)c(C(N)=O)c1	> 4 mM (inactive)
CN(C)C(=S)Nc1ccccc1N1CCOCC1	> 4 mM (inactive)
Nc1cccc(OC(F)(F)F)c1	> 4 mM (inactive)
CC(=O)Nc1cc(N2C(=O)C=CC2=O)ccc1Cl	> 4 mM (inactive)
Cc1nc2ccccc2c(=O)n1/N=C/c1ccncc1	> 4 mM (inactive)
CN1C2CCC1CC(OC(=O)C(CO)c1ccccc1)C2 (configuration not stated)	> 4 mM (inactive)
CC(=O)c1csc(-c2cc(C)on2)n1	> 4 mM (inactive)
Cc1cc(=O)c2c(O)cc(O)c(C)c2o1	> 4 mM (inactive)
CS(=O)(=O)CCCCN=C=S	> 4 mM (inactive)
Nc1nnc(SCc2ccc(F)cc2)s1	> 4 mM (inactive)
CN1CCN(C(=O)c2ccccc2C(=O)O)CC1	> 4 mM (inactive)
CC(C)=CCc1c(O)cc2occ(-c3ccc4c(c3)OCO4)c(=O)c2c1O	> 4 mM (inactive)
Cc1cc(NC(=O)c2c(F)c(F)c(F)c(F)c2F)no1	> 4 mM (inactive)
CCc1ccc(C(=O)N2CCCC2)s1	> 4 mM (inactive)
Cc1onc(-c2ccccc2)c1CO	> 4 mM (inactive)
COC(=O)c1sc(N)nc1C	> 4 mM (inactive)
Nc1ncnc(NC2CCS(=O)(=O)C2)c1[N+](=O)[O-] (configuration not stated)	> 4 mM (inactive)

Compound	Kd
O=C(CC1CCCCC1)N1CCN(c2ccccn2)CC1	> 4 mM (inactive)
O=C(O)CCS(=O)(=O)c1ccccc1	> 4 mM (inactive)
CC(=O)Nc1cccc(N2C(=O)CCC2=O)c1	> 4 mM (inactive)
Oc1cc(O)c2c(c1)O[C@H](c1ccc(O)c(O)c1)[C@H](O)C2	> 4 mM (inactive)
Cc1ccc(C(=O)N2CCOCC2)cc1Cl	> 4 mM (inactive)
OCc1cc(-c2cccs2)on1	> 4 mM (inactive)
CN(C)C(=O)CSc1nc(N)cc(=O)[nH]1	> 4 mM (inactive)
O=C(Nc1ccc(Cl)cn1)c1cnn2cccnc12	> 4 mM (inactive)
COc1ccc(C(=O)NC2=NCCS2)cc1OC	> 4 mM (inactive)
c1ccc2c(c1)CN1CCCC1=N2	> 4 mM (inactive)
O=S1(=O)CCC(NC(=S)Nc2ccc(O)cc2)C1 (configuration not stated)	> 4 mM (inactive)
O=c1ccc2ccccc2o1	> 4 mM (inactive)
O=c1c2ccccc2oc2ccccc12	> 4 mM (inactive)
Nc1ccc(Cl)nn1	> 4 mM (inactive)
O=C(Nc1nc2c(s1)CCCC2)c1cccnc1	> 4 mM (inactive)
Cc1cc(C)n2nc(N)nc2n1	> 4 mM (inactive)
O=C(Nc1ccc2c(c1)CCC2)c1cnccn1	> 4 mM (inactive)
COc1ccc2cnn(-c3ccccc3)c(=O)c2c1OC	> 4 mM (inactive)
COc1c(O)cc(O)cc1O	> 4 mM (inactive)
CC(=O)c1cc(C)ccc1O	> 4 mM (inactive)
C=CC(C1=CC(=O)C(OC)=CC1=O)c1ccccc1 (configuration not stated)	> 4 mM (inactive)
Cc1nn(C)c(C)c1C(=O)O	> 4 mM (inactive)
CCOC(=O)c1[nH]cnc1C(=O)OC(C)C	> 4 mM (inactive)
COC(=O)C1=C(C)N(c2cccc(C(C)=O)c2)C(=O)C1	> 4 mM (inactive)

Compound	Kd
O=C(Nc1ccccc1)Nc1ccccc1	> 4 mM (inactive)
O=C1NCCCC1C(=O)N/N=C/c1ccccc1 (configuration not stated)	> 4 mM (inactive)
O=C(Nc1nnc(-c2ccco2)o1)C1=COCCO1	> 4 mM (inactive)
O=C1Nc2ccccc2C1(O)Cc1ccncc1 (configuration not stated)	> 4 mM (inactive)
Cc1n[nH]c(C)c1N	> 4 mM (inactive)
NCc1cccc2nsnc12	> 4 mM (inactive)
O=C(O)c1ccc(Oc2ccccc2)nc1	> 4 mM (inactive)
O=C(O)C1CC(C2CCCCN2)CN2CCCCC12 (configuration not stated)	> 4 mM (inactive)
CC(C)CCCC1(C)C=Cc2c(O)c3c(c(CCC(C)C)c2O1)OC12C(CC4CC1C(C)(C)OC2(CCC(C)C(=O)O)C4O)C3=O (configuration not stated)	> 4 mM (inactive)
C=C(C)[C@@H]1[C@H]2OC(=O)[C@@H]1[C@]1(O)C[C@H]3O[C@]34C(=O)O[C@H]2[C@]14C	> 4 mM (inactive)
Cc1cc(OC(=O)c2c(C)cc(O)cc2O)cc(O)c1C(=O)O	> 4 mM (inactive)
Cc1ccc2nc(SCCC#N)nc(C)c2c1	> 4 mM (inactive)
COc1cc(/C=C/C(=O)/C=C(O)/C=C/c2ccc(O)c(OC)c2)ccc1O	> 4 mM (inactive)
O=C(CN1CCOCC1)Nc1cccc(Br)c1	> 4 mM (inactive)
O=C1C2CCCCC2C(=O)N1c1nccs1 (configuration not stated)	> 4 mM (inactive)
O=C1CC[C@]23/C=C/C(=O)NCCCCNCCCNC(=O)/C=C/c4ccc(c2c4)O[C@@H]3C1	> 4 mM (inactive)
O=C(NC(=S)NN1CCOCC1)c1cccs1	> 4 mM (inactive)
Cn1c(O)c(/C=C2\C=CC=N2)c(=O)[nH]c1=O	> 4 mM (inactive)
OCCCc1nc2ccc(C(F)(F)F)cc2[nH]1	> 4 mM (inactive)
CC(C)c1ccccc1NC(=O)c1cnccn1	> 4 mM (inactive)
COC(=O)Cc1csc(N)n1	> 4 mM (inactive)
CN(C)/C=N/S(=O)(=O)c1ccccc1	> 4 mM (inactive)
CCCC(=O)N1CCSCC1	> 4 mM (inactive)
Cc1noc(-c2ccccc2)c1C(=O)O	> 4 mM (inactive)

Compound	Kd
c1ccc(-n2ncc3c(NCc4ccco4)ncnc32)cc1	> 4 mM (inactive)
CSc1nc2[nH]ncc2c(=O)[nH]1	> 4 mM (inactive)
Cc1c(O)c(O)cc2c1CC=C1[C@@]2(C)CC[C@@]2(C)C3C[C@](C)(C(=O)O)CC[C@]3(C)CC[C@]12C (some centres not stated)	> 4 mM (inactive)
CC(=O)c1ccc(Cc2cnc(N)s2)cc1	> 4 mM (inactive)
CC(=O)Nc1cccs1	> 4 mM (inactive)
COCc1cc(=O)oc2cc(O)c(Cl)cc12	> 4 mM (inactive)
O=C(Nc1cccc(Cl)c1)c1ccncc1	> 4 mM (inactive)
O=C(Nc1ccccc1C(F)(F)F)N1CCCCCC1	> 4 mM (inactive)
COc1cc(C(C)=O)cc(OC)c1O	> 4 mM (inactive)
CC(=O)O[C@H]1CC[C@@]2(C)C(=CCC3C2CC[C@@]2(C)C3CC[C@@H]2C(C)CCCC(C)C)C1 (some centres not stated)	> 4 mM (inactive)
Cc1cc(O)c(C=O)c(O)c1C(=O)O	> 4 mM (inactive)
Cc1c(C(=O)O)cnn1-c1ccccc1	> 4 mM (inactive)
CC1=C(/C=C/C(C)=C/C=C/C(C)=C/C=C/C=C(C)/C=C/C=C(C)/C=C/C(=O)[C@]2(C)C[C@@H](O)CC2(C)C)C(C)(C)C[C@H](O)C1	> 4 mM (inactive)
COc1ccc(NC(=O)CSc2nccc(=O)[nH]2)cc1	> 4 mM (inactive)
CC(=O)Nc1nnc(-c2ccncc2)s1	> 4 mM (inactive)
Cc1c(N=Cc2ccc[nH]2)c(=O)n(-c2ccccc2)n1C	> 4 mM (inactive)
O=C(c1ccc(N2CCNCC2)cc1)c1cccnc1	> 4 mM (inactive)
O=C(Nc1cnccn1)c1cccnc1	> 4 mM (inactive)
COC(=O)CSc1nc(N)cc(=O)[nH]1	> 4 mM (inactive)
CC(C)(C)NC(=O)N1CCC(C(N)=O)CC1	> 4 mM (inactive)
Nc1nsc(-c2ccccc2)n1	> 4 mM (inactive)
CC(NC(=O)c1ccco1)C1CCCO1 (configuration not stated)	> 4 mM (inactive)
COCc1c(CN)cnc(C)c1N	> 4 mM (inactive)
CC1=CC(C)C(C(=O)O)C(C(=O)N2CCN(C)CC2)C1 (configuration not stated)	> 4 mM (inactive)

Compound	Kd
CCOC(=O)CSc1nnc(C)c(=O)[nH]1	> 4 mM (inactive)
CC(=O)O[C@H]1CC[C@@]2(C)C(=CC(=O)C3C4CCC(C(C)CCCC(C)C)[C@@]4(C)CCC32)C1 (some centres not stated)	> 4 mM (inactive)
O=C(O)c1ccnc2ccccc12	> 4 mM (inactive)
CC1(C)O[C@H]2CC(=O)OC[C@]23[C@H]2CC[C@@]4(C)[C@H](c5ccoc5)OC(=O)[C@H]5O[C@]54[C@]2(C)C(=O)C[C@@H]13	> 4 mM (inactive)
O=C(O)c1ccc2sccc2c1	> 4 mM (inactive)
CN(C)S(=O)(=O)c1ccccc1C#N	> 4 mM (inactive)
Nc1ncnc(NCCOCCO)c1[N+](=O)[O-]	> 4 mM (inactive)
Nc1ccc(OCc2ccccc2)cc1	> 4 mM (inactive)
NC(=O)CSc1nc2[nH]ncc2c(=O)[nH]1	> 4 mM (inactive)
CC1(C)C=Cc2c(cc3occ(-c4ccc5c(c4)OCO5)c(=O)c3c2O)O1	> 4 mM (inactive)
O=c1c[n+]([O-])c2ccccc2n1OCc1ccccc1	> 4 mM (inactive)
CC1CCN(S(=O)(=O)N(C)C)CC1	> 4 mM (inactive)
OCc1ccc(OC(F)(F)F)cc1	> 4 mM (inactive)
COC(=O)[C@@H]1OC(=O)[C@H]2O[C@@]23[C@@]1(C)CCC1[C@@]2(C)CCC(=O)C(C)(C)C2C[C@@H](OC(C)=O)[C@]13C (some centres not stated)	> 4 mM (inactive)
CCC(C)C(=O)O[C@@H]1C[C@@]2(C)[C@H](c3ccoc3)OC(=O)CC23OC2(C)O[C@]14[C@]1(C)[C@@H](CC(=O)OC)C5(C)CC1(O)[C@](O)(C5OC(=O)C1(C)OC1C)[C@@H](OC(C)=O)[C@]34O2 (some centres not stated)	> 4 mM (inactive)
NC(=O)Cn1nnc(-c2ccc(C(F)(F)F)cc2)n1	> 4 mM (inactive)
Cc1cc(=O)[nH]c(NCc2cccnc2)n1	> 4 mM (inactive)
S=c1nc[nH]c2c1cnn2-c1ccccc1	> 4 mM (inactive)
COC(=O)c1ccc2snnc2c1	> 4 mM (inactive)
O=S(=O)(Cc1ccccc1Cl)Nc1ccccn1	> 4 mM (inactive)
CN1CCC(N(C)Cc2cccnc2)CC1	> 4 mM (inactive)
